Source: patent US9365522B2, “Pyrazole amide derivative” (AMGEN INC., priority 2015, dated 2016)

Key:
human RORγ-LBD = molecular target: T1, human RORγ-LBD (Homo sapiens, UniProt P51449); assay: ROR gamma coactivator peptide recruitment Alphascreen assay (RORγ-LBD binding to GRIP1 coactivator peptide); assay type: biochemical; conditions: 5 nM human RORγ-LBD, 30 nM 7-β-hydroxycholesterol, 50 nM biotinylated GRIP1 coactivator peptide, overnight incubation at room temperature; read-out: result (pIC50, RORγ coactivator peptide recruitment Alphascreen assay) (converted)
T1 construct: made in house; host or cells: E. coli (BL-21)
T1 sequence (P51449 262-518): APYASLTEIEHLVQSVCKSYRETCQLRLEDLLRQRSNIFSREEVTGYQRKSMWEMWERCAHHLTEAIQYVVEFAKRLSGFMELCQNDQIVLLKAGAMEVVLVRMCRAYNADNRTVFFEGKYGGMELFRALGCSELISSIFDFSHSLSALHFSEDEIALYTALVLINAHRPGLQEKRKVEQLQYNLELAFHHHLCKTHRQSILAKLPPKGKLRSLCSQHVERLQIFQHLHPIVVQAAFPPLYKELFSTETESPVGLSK
Source text: Alphascreen™ is a bead-based amplified homogenous luminescent proximity assay that can be used for measuring the effect of compounds on protein-protein interactions. When biological interactions bring donor and acceptor beads into close proximity, reactive oxygen, generated upon laser excitation of the donor beads, initiates a luminescence/fluorescence cascade in the acceptor beads that leads to a highly amplified signal that can be measured as light in the 520-620 nm range. When the acceptor and donor beads are not in proximity, the reactive oxygen decays and only a very low background signal is generated.
An in vitro assay to assess inhibition of RORγ binding to the coactivator GRIP1 was established using Alphascreen™ technology. The interaction between nuclear receptors (NR) and coactivator proteins is a key step in signal transduction from the receptor to the transcriptional machinery and can be measured in vitro using only the ligand binding domain of the nuclear receptor and a peptide containing a coactivator protein LXXLL nuclear receptor binding motif
For the RORγ construct used in the coactivator recruitment assay, nucleotides corresponding to the ligand binding domain (LBD) of wild type human RORγ (amino acids 262-518 of Genbank Accession No. NM_005060.3) were cloned into the pET24 expression vector (Novagen), downstream of in-frame N-terminal 6×His and Flag tag sequences. Recombinant 6×His:Flag-tagged human RORγ-LBD protein was expressed in E. coli (BL-21) and purified by affinity chromatography on a nickel Sepharose column, followed by anion exchange chromatography.
A 4× assay mixture of 6×His:Flag-tagged human RORγ-LBD with the agonist ligand 7-β-hydroxycholesterol was prepared in assay buffer (50 mM HEPES pH 7.4, BSA 0.05%, 150 mM NaCl, 5 mM MgCl2, 1 mM DTT, 0.01% Tween-20). For control wells a 4× mixture of 6×His:Flag-tagged human ROR gamma LBD alone was also prepared.
A 4× stock of biotinylated coactivator peptide containing the LXXLL motif from GRIP1 (Biotin-[…]) was prepared in assay buffer.
A 4×detection mixture of nickel chelate Alphascreen™ acceptor beads (PerkinElmer) and streptavidin Alphascreen™ donor beads (PerkinElmer) was prepared in assay buffer.
Compounds to be tested were arranged in a pre-dose 384-well mother plate serially diluted 1 in 2 over 22 columns, in 100% DMSO, at 40× the final test concentration, from a high concentration of 4 mM. DMSO with no compound was placed in control columns. The compounds were robotically dispensed directly into assay plates containing assay buffer to a 4× final test concentration.
Following compound addition, the 6×His:Flag-tagged human RORγ-LBD plus 7-β-hydroxycholesterol assay mixture, biotinylated coactivator peptide and detection mixture were added. Final assay conditions were 5 nM 6×His:Flag-tagged human RORγ-LBD, 30 nM 7-β-hydroxycholesterol, 50 nM biotinylated coactivator peptide, 2.5 ug/ml nickel acceptor beads and 10 ug/ml streptavidin donor beads. The final concentration of DMSO in the assay was 2.5%.
After overnight incubation at room temperature plates were read on and Envision™ plate reader (PerkinElmer).
Data was plotted and pIC50 values were calculated using the Genedata Screener™ data analysis suite (Genedata).

[1] = molecular target: T2, ligand binding domain of human ROR gamma (Homo sapiens, UniProt P51449); assay: ROR gamma reporter gene assay (GAL4-RORγ LBD luciferase, Dual-Glo); assay type: cell-based; conditions: HEK293T cells transfected with pM-ROR gamma, 8 concentrations 3.5 nM to 10.5 μM, 24 h incubation
T2 construct: NM_001001523; expressed in transfected cells; host or cells: HEK293T
T2 sequence (P51449 247-497 isoform P51449-2): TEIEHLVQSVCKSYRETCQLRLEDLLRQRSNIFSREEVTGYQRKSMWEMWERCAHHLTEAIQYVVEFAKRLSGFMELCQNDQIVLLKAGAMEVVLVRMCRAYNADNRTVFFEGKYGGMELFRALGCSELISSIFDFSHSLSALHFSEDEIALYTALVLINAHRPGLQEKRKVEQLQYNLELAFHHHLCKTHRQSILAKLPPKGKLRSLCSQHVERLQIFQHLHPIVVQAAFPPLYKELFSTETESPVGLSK
Outline: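 HEK293T cells co-transfected with GAL4-DBD fused to human RORγ LBD (aa 247-497), 5×UAS firefly luciferase reporter and CMV-renilla, in charcoal-stripped serum.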

IC50 (human RORγ-LBD) [nM]	Compound	result (pIC50, inhibition of RORγ transcriptional activity) [1]
63.1	COC(CN(CC(C)(C)C)C(=O)c1cnn([C@H]2CC[C@H](C(=O)O)CC2)c1C(F)(F)F)c1c(Cl)cc(C)cc1Cl (relative stereo) [Example 529, trans-4-(4-(((2R/S)-2-(2,6-dichloro-4-methylphenyl)-2-methoxyethyl)(2,2-dimethylpropyl)carbamoyl)-5-(trifluoromethyl)-1H-pyrazol-1-yl)cyclohexanecarboxylic acid]	–
9.33	CC(C)[C@@H]1C[C@H](Cc2c(Cl)cncc2Cl)N(C(=O)c2cnn([C@H]3CC[C@](C)(C(=O)O)CC3)c2C(F)(F)F)C1 (single isomer, unassigned) [Example 701]	–
3.98	CC(C)(C)CN(CC(=O)c1c(Cl)cncc1Cl)C(=O)c1cnn([C@H]2CC[C@H](C(=O)O)C(C)(C)C2)c1C(F)(F)F (single isomer, unassigned) [Example 785]	–
18200	C[C@]1(C(=O)O)CC[C@H](n2ncc(C(=O)N3C[C@@H](Oc4ccccc4)C[C@@H]3C(=O)c3c(Cl)cncc3Cl)c2C(F)(F)F)CC1 (single isomer, unassigned) [Example 796]	–
45.7	CC1(CN(CC(=O)c2c(Cl)cncc2Cl)C(=O)c2cnn([C@H]3CC[C@H](C(=O)O)C(C)(C)C3)c2C(F)(F)F)CCC1 (single isomer, unassigned) [Example 807]	–
6.03	C[C@H]1C[C@@H](n2ncc(C(=O)N(CC(=O)c3c(Cl)cncc3Cl)CC(C)(C)C)c2C(F)(F)F)CC[C@@H]1C(=O)O (single isomer, unassigned) [Example 813]	–
5890	C[C@]1(C(=O)O)CC[C@H](n2ncc(C(=O)N3C[C@H](C4CCCCC4)C[C@@H]3C(=O)c3c(Cl)cncc3Cl)c2C(F)(F)F)CC1 (single isomer, unassigned) [Example 822]	–
9120	C[C@]1(C(=O)O)CC[C@H](n2ncc(C(=O)N3C[C@H](C4CCCCC4)C[C@H]3C(=O)c3c(Cl)cncc3Cl)c2C(F)(F)F)CC1 (single isomer, unassigned) [Example 823]	–
3.72	CC(C)(C)CN(CC(=O)c1c(Cl)cncc1Cl)C(=O)c1cnn([C@H]2C[C@]3(C[C@H](C(=O)O)C3)C2)c1C(F)(F)F (single isomer, unassigned) [Example 837]	–
5.89	C[C@H]1C[C@@](C)(C(=O)O)CCC1n1ncc(C(=O)N(CC(=O)c2c(Cl)cncc2Cl)CC(C)(C)C)c1C(F)(F)F (single isomer, unassigned) [Example 843]	–
2	CC1(C)[C@@H]2C[C@H](N(CC(=O)c3c(Cl)cccc3Cl)C(=O)c3cnn([C@H]4C[C@@H](CC(=O)O)C4)c3C(F)(F)F)C[C@@H]21 (single isomer, unassigned) [Example 858]	–
2.95	C[C@H]1C[C@@H](n2ncc(C(=O)N(CC(=O)c3c(Cl)cncc3Cl)CC(C)(C)C(F)(F)F)c2C(F)(F)F)CC[C@@H]1C(=O)O (single isomer, unassigned) [Example 879]	–
1.86	Cc1cc(Cl)c(CCN(CC2(C)CCCCC2)C(=O)c2cnn(C3CCC(C(=O)O)CC3)c2C(F)(F)F)c(Cl)c1 (stereo in doubt) [Example 511, trans-4-(4-((2-(2,6-dichloro-4-methylphenyl)ethyl)((1-methylcyclohexyl)methyl)carbamoyl)-5-(trifluoromethyl)-1H-pyrazol-1-yl)cyclohexanecarboxylic acid]	–
7.24	Cc1cc(Cl)c(CCN(CC(C)(C)C)C(=O)c2cnn(C3CCC(C(=O)O)CC3)c2C(F)(F)F)c(Cl)c1 (stereo in doubt) [Example 512, trans-4-(4-((2-(2,6-dichloro-4-methylphenyl)ethyl)(2,2 - dimethylpropyl)carbamoyl)-5-(trifluoromethyl)-1H-pyrazol-1-yl)cyclohexanecarboxylic acid]	–
6.03	Cc1cc(Cl)c(C(=O)CN(C(=O)c2cnn(C3CCC(C(=O)O)CC3)c2C(F)(F)F)C2CCC(C)(C)CC2)c(Cl)c1 (stereo in doubt) [Example 516, trans-4-(4-((2-(2,6-dichloro-4-methylphenyl)-2-oxoethyl)(4,4-dimethylcyclohexyl)carbamoyl)-5-(trifluoromethyl)-1H-pyrazol-1-yl)-1-cyclohexanecarboxylic acid]	–
4.68	C[C@@H]1C[C@@H](n2ncc(C(=O)N(CC(=O)c3c(Cl)cccc3Cl)CC3CC(C)(C)C3)c2C(F)(F)F)CC[C@@H]1C(=O)O (stereo in doubt) [Example 572, (1S,2R,4S)-4-(4-((2-(2,6-dichlorophenyl)-2-oxoethyl)((3,3-dimethylcyclobutyl)methyl)carbamoyl) 5-(trifluoromethyl)-1H-pyrazol-1-yl)-2-methylcyclohexanecarboxylic acid]	–
331	C=CC[C@@H]1CCCC[C@@H]1n1ncc(C(=O)N(CC(=O)c2c(Cl)cncc2Cl)CC(C)(C)C)c1C(F)(F)F (stereo in doubt) [Example 586, N-(2-(3,5-dichloro-4-pyridinyl)-2-oxoethyl)-N-(2,2-dimethylpropyl)-1-((1S,2S)-2-(2-propen-1-yl)cyclohexyl)-5-(trifluoromethyl)-1H-pyrazole-4-carboxamide]	–
49	O=C(CN(CC1(F)CCCC1)C(=O)c1cnn(C2CCC(C(=O)O)CC2)c1C(F)(F)F)c1c(Cl)cccc1Cl (stereo in doubt) [Example 603, cis-4-(4-((2-(2,6-dichlorophenyl)-2-oxoethyl)((1-fluorocyclopentyl)methyl)carbamoyl)-5-(trifluoromethyl)-1H-pyrazol-1-yl)cyclohexanecarboxylic acid]	–
95.5	O=C(O)C1CCC(n2ncc(C(=O)N(CCc3c(Cl)cncc3Cl)CC3(F)CCCC3)c2C(F)(F)F)CC1 (stereo in doubt) [Example 609, cis-4-(4-((2-(3,5-dichloro-4-pyridinyl)ethyl)((1-fluorocyclopentyl)methyl)carbamoyl)-5-(trifluoromethyl)-1H-pyrazol-1-yl)cyclohexanecarboxylic acid]	–
64.6	O=C(CN(C(=O)c1cnn([C@H]2CC[C@@H](C(=O)O)CC2)c1C(F)(F)F)C1CCC12CCCC2)c1c(Cl)cccc1Cl (stereo in doubt) [Example 627, cis-4-(4-((2-(2,6-dichlorophenyl)-2-oxoethyl)((1R)-spiro[3.4]oct-1-yl)carbamoyl)-5-(trifluoromethyl)-1H-pyrazol-1-yl)cyclohexanecarboxylic acid]	–
–	cis-3-(4-((2-(3,5-dichloropyridin-4-yl)-2- oxoethyl)(4-fluorobenzyl)carbamoyl)-5- (trifluoromethyl)-1H-pyrazol-1-yl)-1- fluorocyclohexanecarboxylic acid [Example 83]	5.78
–	trans-4-(4-((2-(3-chloro-5-fluoropyridin-4-yl)- 2-oxoethyl)-(2,2-dimethylbutyl)carbamoyl)-5- (trifluoromethyl)pyrazol-1-yl)-1- methylcyclohexane-1-carboxylic acid [Example 337]	7.20
